# In US7119182B1 (The Regents of the University of California, priority 1991, dated 2006):
# Square brackets hold non-standard residues; d marks the D form. Ends that are not written are not given here. Peptide text beside a SMILES is read from it. * marks the point of attachment. 2Nal = N[C@@H](Cc1ccc2ccccc2c1)C(=O)O; 2Thi = N[C@@H](Cc1cccs1)C(=O)O; Cha = N[C@@H](CC1CCCCC1)C(=O)O; Phg = N[C@H](C(=O)O)c1ccccc1; Aib = CC(C)(N)C(=O)O; X1 = O=C(c1ccccc1S)*; Mpa = O=C(O)CCS
# Target: T1, thrombin receptor (Homo sapiens, UniProt P25116)
# T1 construct: In this assay, washed human platelets are prepared by the method of Baenzinger; endogenous in cells; host or cells: washed human platelets
# T1 sequence (P25116 22-425): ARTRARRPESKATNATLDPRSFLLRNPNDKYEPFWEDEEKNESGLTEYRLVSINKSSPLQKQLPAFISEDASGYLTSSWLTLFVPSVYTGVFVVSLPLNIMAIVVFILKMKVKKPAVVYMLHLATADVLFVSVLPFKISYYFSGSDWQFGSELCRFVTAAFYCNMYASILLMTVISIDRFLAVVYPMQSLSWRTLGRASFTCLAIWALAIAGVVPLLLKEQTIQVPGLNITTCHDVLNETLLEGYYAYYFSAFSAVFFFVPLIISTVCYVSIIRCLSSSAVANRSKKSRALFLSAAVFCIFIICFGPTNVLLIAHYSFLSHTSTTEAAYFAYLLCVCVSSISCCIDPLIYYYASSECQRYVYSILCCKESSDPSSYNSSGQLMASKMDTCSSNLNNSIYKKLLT
# Experiment: Platelet activation/aggregation assays in the presence of thrombin, antagonist peptides
# Format: cell-based
# Conditions: read-out: IC50 (50% inhibition of activation or aggregation)
# Description: Platelet Aggregation: In this assay, washed human platelets are prepared by the method of Baenzinger, M. G., Meth Enzymol (1974) 31:149–155, or as described by Charo, I. F., et al., J Clin Invest (1977) 63:866–873.
# Washed platelets are suspended in modified Tyrode's buffer, pH 7.4 with 2 mM magnesium and 1 mM calcium at a concentration of 10^8 platelets/ml.
# About 20 μl Chromolume® reagent (Chronolog Corporation, Havertown, Pa.) is added. In addition to measuring aggregation, ATP secretion is assessed. […] Platelet ATP secretion is measured in a lumiaggregometer as luminescence signal. […] Preincubation is not necessary for testing agonists or antagonists which interact directly with the receptor.
# Platelet Aggregation Assay Using Microtiter Plates: Thrombin- or agonist-mediated platelet aggregation as measured with washed platelets in 96-well microtiter plates was performed as described (Fratantoni, J. C. et al., Am J Clin Pathol (1990) 94:613–617).
row,Molecule,IC50 [µM]
1,CC(C)C[C@H](NC(=O)[C@H](Cc1ccccc1)NC(=O)CCS)C(=O)N[C@@H](CC(C)C)C(=O)N[C@@H](CCCNC(=N)N)C(=O)N[C@@H](CC(N)=O)C(=O)N1CCC[C@H]1C(=O)N[C@@H](CC(N)=O)C(=O)N[C@@H](CC(=O)O)C(=O)N[C@@H](CCCCN)C(=O)O ([Mpa]FLLRNPNDK-OH),80
2,N=C(N)NCCC[C@H](NC(=O)[C@H](CC1CCCCC1)NC(=O)[C@H](CC1CCCCC1)NC(=O)[C@H](Cc1ccccc1)NC(=O)CCS)C(=O)N[C@@H](CC(N)=O)C(=O)N1CCC[C@H]1C(=O)N[C@@H](CC(N)=O)C(=O)N[C@@H](CC(=O)O)C(=O)N[C@@H](CCCCN)C(=O)N[C@@H](Cc1ccc(O)cc1)C(=O)N[C@@H](CCC(=O)O)C(N)=O ([Mpa]F[Cha][Cha]RNPNDKYE-NH2),80
3,N=C(N)NCCC[C@H](NC(=O)[C@H](CC1CCCCC1)NC(=O)[C@H](CC1CCCCC1)NC(=O)[C@H](Cc1ccccc1)NC(=O)c1ccccc1S)C(=O)N[C@@H](CCCCN)C(=O)N1CCC[C@H]1C(=O)N[C@@H](CC(N)=O)C(=O)N[C@@H](CC(=O)O)C(=O)N[C@@H](CCCCN)C(N)=O [(2-Mba)-F(Cha)(Cha)RKPNDK-NH2] (X1-F[Cha][Cha]RKPNDK-NH2),50
4,CSCCC(=O)N[C@@H](Cc1ccccc1)C(=O)N[C@@H](CC1CCCCC1)C(=O)N[C@@H](CC1CCCCC1)C(=O)N[C@@H](CCCNC(=N)N)C(=O)N[C@@H](CCCCN)C(=O)N1CCC[C@H]1C(=O)N[C@@H](CC(N)=O)C(=O)N[C@@H](CC(=O)O)C(=O)N[C@@H](CCCCN)C(N)=O [(SMeMpr)-F(Cha)(Cha)RKPNDK-NH2] ([Mpa](Me)F[Cha][Cha]RKPNDK-NH2),10
5,C[C@H](NC(=O)[C@H](CCCNC(=N)N)NC(=O)[C@H](CC1CCCCC1)NC(=O)[C@H](CC1CCCCC1)NC(=O)[C@H](Cc1ccccc1)NC(=O)CCS)C(=O)N1CCC[C@H]1C(=O)N[C@@H](CC(N)=O)C(=O)N[C@@H](CC(=O)O)C(=O)N[C@@H](CCCCN)C(N)=O [Mpr-F(Cha) (Cha)RAPNDK-NH2] ([Mpa]F[Cha][Cha]RAPNDK-NH2),40
6,N=C(N)NCCC[C@H](NC(=O)[C@H](CC1CCCCC1)NC(=O)[C@H](CC1CCCCC1)NC(=O)[C@H](Cc1ccccc1)NC(=O)CCS)C(=O)N[C@@H](Cc1ccccc1)C(=O)N1CCC[C@H]1C(=O)N[C@@H](CC(N)=O)C(=O)N[C@@H](CC(=O)O)C(=O)N[C@@H](CCCCN)C(N)=O [Mpr-F(Cha) (Cha)RFPNDK-NH2] ([Mpa]F[Cha][Cha]RFPNDK-NH2),> 100
7,C[C@H](NC(=O)[C@H](CC(=O)O)NC(=O)[C@H](CC(N)=O)NC(=O)[C@@H]1CCCN1C(=O)[C@H](CCCCN)NC(=O)[C@H](CCCNC(=N)N)NC(=O)[C@H](CC1CCCCC1)NC(=O)[C@H](CC1CCCCC1)NC(=O)[C@H](Cc1ccccc1)NC(=O)CCS)C(N)=O [Mpr-F(Cha) (Cha)RKPNDA-NH2] ([Mpa]F[Cha][Cha]RKPNDA-NH2),50
8,C[C@H](NC(=O)[C@H](CC(N)=O)NC(=O)[C@H](CCCNC(=N)N)NC(=O)[C@H](CC1CCCCC1)NC(=O)[C@H](CC1CCCCC1)NC(=O)[C@H](Cc1ccccc1)NC(=O)CCS)C(=O)N[C@@H](CC(N)=O)C(=O)N[C@@H](CC(=O)O)C(=O)N[C@@H](CCCCN)C(N)=O [Mpr-F(Cha) (Cha)RNANDK-NH2] ([Mpa]F[Cha][Cha]RNANDK-NH2),75
9,C[C@H](NC(=O)[C@@H]1CCCN1C(=O)[C@H](CC(N)=O)NC(=O)[C@H](CCCNC(=N)N)NC(=O)[C@H](CC1CCCCC1)NC(=O)[C@H](CC1CCCCC1)NC(=O)[C@H](Cc1ccccc1)NC(=O)CCS)C(=O)N[C@@H](CC(=O)O)C(=O)N[C@@H](CCCCN)C(N)=O [Mpr-F(Cha) (Cha)RNPADK-NH2] ([Mpa]F[Cha][Cha]RNPADK-NH2),75
10,C[C@H](NC(=O)[C@H](CC(N)=O)NC(=O)[C@@H]1CCCN1C(=O)[C@H](CC(N)=O)NC(=O)[C@H](CCCNC(=N)N)NC(=O)[C@H](CC1CCCCC1)NC(=O)[C@H](CC1CCCCC1)NC(=O)[C@H](Cc1ccccc1)NC(=O)CCS)C(=O)N[C@@H](CCCCN)C(N)=O [Mpr-F(Cha) (Cha)RNPNAK-NH2] ([Mpa]F[Cha][Cha]RNPNAK-NH2),> 100
11,N=C(N)NCCC[C@H](NC(=O)[C@H](CC1CCCCC1)NC(=O)[C@H](CC1CCCCC1)NC(=O)[C@H](Cc1ccccc1)NC(=O)CCS)C(=O)N[C@@H](CC(N)=O)C(=O)N1CCC[C@H]1C(=O)N[C@@H](CC(N)=O)C(=O)N[C@@H](CC(=O)O)C(N)=O [Mpr-F(Cha) (Cha)RNPND-NH2] ([Mpa]F[Cha][Cha]RNPND-NH2),50

# Target: T2, washed human platelets (Homo sapiens, UniProt P25116)
# T2 sequence (P25116 42-425): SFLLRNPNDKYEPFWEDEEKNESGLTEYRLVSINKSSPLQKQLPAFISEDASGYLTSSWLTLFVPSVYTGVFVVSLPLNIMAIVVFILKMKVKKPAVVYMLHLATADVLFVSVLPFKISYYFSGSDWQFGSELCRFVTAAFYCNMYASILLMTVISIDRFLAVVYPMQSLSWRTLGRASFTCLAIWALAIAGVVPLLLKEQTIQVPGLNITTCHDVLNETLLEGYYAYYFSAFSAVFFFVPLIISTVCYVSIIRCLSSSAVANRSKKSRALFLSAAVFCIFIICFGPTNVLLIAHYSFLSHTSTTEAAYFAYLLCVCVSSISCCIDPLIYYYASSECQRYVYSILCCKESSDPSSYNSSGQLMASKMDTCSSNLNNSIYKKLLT
# Experiment: not given
# Conditions: read-out: EC50 (concentration required to elicit a 50% maximal aggregation); washed human platelets
row,Molecule,EC50 [µM]
1,CC(C)C[C@H](NC(=O)[C@H](CC(C)C)NC(=O)[C@H](Cc1cccs1)NC(=O)[C@@H](N)CO)C(=O)N[C@@H](CCCNC(=N)N)C(N)=O [S(Thi)LLR-NH2] (H-S[2Thi]LLR-NH2),7.6
2,CC(C)C[C@H](NC(=O)[C@H](CC1CCCCC1)NC(=O)[C@H](Cc1ccccc1)NC(=O)[C@@H](N)CO)C(=O)N[C@@H](CCCNC(=N)N)C(N)=O [SF(Cha)LR-NH2] (H-SF[Cha]LR-NH2),1.5
3,CC(C)C[C@H](NC(=O)[C@H](CC(C)C)N(C)C(=O)[C@H](Cc1ccccc1)NC(=O)[C@@H](N)CO)C(=O)N[C@@H](CCCN=C(N)N)C(N)=O [SF(N-MeLeu)LR-NH2],> 1000
4,CC(C)C[C@H](NC(=O)[C@H](Cc1ccccc1)NC(=O)[C@@H](N)CO)C(=O)N[C@@H](Cc1ccc2ccccc2c1)C(=O)N[C@@H](CCCNC(=N)N)C(=O)N[C@@H](CC(N)=O)C(N)=O [SFL(Nal)RN-NH2] (H-SFL[2Nal]RN-NH2),7.5
5,CC(C)C[C@H](NC(=O)[C@H](CC(C)C)NC(=O)[C@H](Cc1ccccc1)NC(=O)[C@@H](N)CO)C(N)=O [SFLL-NH2] (H-SFLL-NH2),146
6,CC(C)C[C@H](NC(=O)[C@H](CC(C)C)NC(=O)[C@H](Cc1ccccc1)NC(=O)[C@@H](N)CO)C(=O)N[C@@H](CCCN=C(N)N)C(N)=O [SFLLR-NH2],7.5
7,SFFLRN-NH2 [SFFLRN-NH2],1.5
8,SFLAR-NH2 [SFLAR-NH2],146
9,SFLLRNPN,7.6

# Same assay, conditions: washed human platelets
row,Molecule,EC50 (concentration required to elicit a 50% maximal aggregation)
1,DFLLR [DFLLR-NH2],Inactive
2,FFLLR [FFLLR-NH2],Inactive
3,FLLRNPNDKYEPF,Inactive
4,KFLLR [KFLLR-NH2],Inactive
5,S(Phg)LLR-NH2 (S[Phg]LLR-NH2; N-terminus assumed; SMILES CC(C)C[C@H](NC(=O)[C@H](CC(C)C)NC(=O)[C@@H](NC(=O)[C@@H](N)CO)c1ccccc1)C(=O)N[C@@H](CCCNC(=N)N)C(N)=O),Inactive
6,SALLRNPNDKYE,Inactive
7,SF(Aib)LRN-NH2 (SF[Aib]LRN-NH2; N-terminus assumed; SMILES CC(C)C[C@H](NC(=O)C(C)(C)NC(=O)[C@H](Cc1ccccc1)NC(=O)[C@@H](N)CO)C(=O)N[C@@H](CCCNC(=N)N)C(=O)N[C@@H](CC(N)=O)C(N)=O),Inactive
8,SF(D-Ala)LR-NH2 (SF[dA]LR-NH2; N-terminus assumed; SMILES CC(C)C[C@H](NC(=O)[C@@H](C)NC(=O)[C@H](Cc1ccccc1)NC(=O)[C@@H](N)CO)C(=O)N[C@@H](CCCNC(=N)N)C(N)=O),Inactive
9,SF(b-Ala)LRN-NH2 (SFXLRN; beta-Ala at position 3; C-terminal amide),Inactive
10,SFDLR [SFDLR-NH2],Inactive
11,SFLARNPNDKYE,Inactive
12,SFLER [SFLER-NH2],Inactive
13,SFLLDN [SFLLDN-NH2],Inactive
14,SFLLRNPNDYKE,Inactive
15,SFLPR [SFLPR-NH2],Inactive
16,SLLLR [SLLLR-NH2],Inactive
